Reference: patent US20200087340A1, “LIF/LIFR ANTAGONIST IN ONCOLOGY AND NONMALIGNANT DISEASES” (Evestra, Inc., priority 2018, published 2020)
“Also recorded” adds a separate entry of the source.

Columns and labels:
[1] = test system: various cancer cells lines; test: Cytotoxicity assays in various cancer cell lines; assay type: cell-based
Mug-Chor cells = test: 48 hours MTT cell proliferation assay, chordoma; assay type: cell-based
Protocol: (§1) EC359 was tested two chormoma cell lines (Mug-Chor and U-CH1) for cell viability in 48 hours MTT cell proliferation assay.

U-CH1 = test: 48 hours MTT cell proliferation assay, chordoma; assay type: cell-based; settings: UCH1; U-CH1, 48 hours MTT
Protocol: as §1

[2] = test system: High trans-fat fructose diet induced liver fibrosis; test: High fat diet (HFD) induced liver fibrosis in rats; assay type: in vivo, rat
cancer cells = test: Colony formation in soft agar (EC359); assay type: cell-based
[3] = test system: triple negative breast cancer (TNBC) stem cells; test: TNBC stem cell inhibition; assay type: cell-based
[4] = test system: cancer-associated fibroblasts (CAFs), alpha-SMA; test: Cytoskeletal disruption / cancer-associated fibroblasts; assay type: cell-based
TNBC xenograft = TNBC xenograft (EC359); assay type: in vivo; settings: 1 and 5 mg/kg
Description: (§2) . Blockade of LIF-LIFR interaction reduced the STAT3 phosphorylation, mTOR and further downstream signaling cascades. […]. Our findings establish EC359 as a novel LIF/LIFR targeting drug with therapeutic perspectives for patients with advanced primary tumors. LIF/LIFR targeting may result in the blockade of JAK-STAT signaling pathway as well as cancer fibroblast associated pro invasive tumor microenvironment in regular as well as therapy resistant tumors

MM51 = test: Murine syngeneic MM51 model; assay type: in vivo; settings: 1 and 5 mg/kg
Description: as §2

[5] = test system: FC 1295 and imPSCc-2 organoids; test: Pancreatic cancer / stellate cell line derived organoid system; assay type: cell-based, Murine
Protocol: Most solid tumors have extensive stroma that not only facilitates the tumor progression but also impedes the delivery of the chemotherapeutic agents. Due to lack of any in-vitro system, presently it is difficult to evaluate any stroma-targeted therapies. Therefore, we developed an organoid system using labeled pancreatic cancer and stellate cell lines. Murine (FC 1295 and […]-2) cell lines cultured in different combinations were grown as an organoid system using matrigel. The organoids, starting day four were treated with either gemcitabine or EC359, a novel mifepristone derived steroidal cytotoxic agent that targets tumor stroma, or both in combination. qRT-PCR analysis of activated stroma signature genes was performed on the mRNA isolated from different treatment groups. H&E, immunohistochemistry, and western blot analysis were performed to further validate our findings. […] Our novel cell line derived organoid model can be utilized for fast, and inexpensive evaluation of stroma-targeted therapies.

[6] = test system: breast and ovarian cancer cells; test: Combination with HDAC inhibitor, colony formation; assay type: cell-based
Description: Therapy resistance is a major hurdle in cancer chemo/targeted therapy. The role of LIF/LIFR signaling in inducing stemness and hypoxia is well established in different cancers. […] FIG. 16A depicts colony formation of cancer cells under various conditions. […] FIG. 16B depicts the effect of EC359 alone and in combination with SAHA on STAT 3 phosphorylation. FIG. 16C depicts the effect of EC359 alone and in combination with SAHA on induced apoptosis. FIGS. 17A and 17B depicts the effect of EC359 alone and in combination with SAHA on the growth of TNBC patient derived tumors. […] The combination of EC359 and SAHA provided a greater reduction than either […] alone.

[7] = test system: S. typhimurium TA98, TA100, TA1535 and E. coli WP2 uvrA + E. coli WP2[pKM101] strains; test: Mutagenicity testing
hERG membrane = hERG membrane (Homo sapiens, UniProt Q12809); test: Cardiotoxicity assessment (hERG), fluorescence polarization assay; assay type: binding
[8] = test system: Cytochrome P450 (1A2, 2C9, 2C19, 2D6, 3A4); test: CYP inhibition using human liver microsomes; assay type: in vitro ADME; settings: human liver microsomes (1A2, 2C9, 2C19, 2D6, 3A4)
Hepatocyte stability [9] = assay type: in vitro ADME; settings: Human
Hepatocyte stability [10] = assay type: in vitro ADME; settings: Mouse
Hepatocyte stability [11] = assay type: in vitro ADME; settings: Rat
Hepatocyte stability [12] = assay type: in vitro ADME; settings: Dog
Microsomal stability [13] = assay type: in vitro ADME; settings: Human
Microsomal stability [14] = assay type: in vitro ADME; settings: Mouse
Microsomal stability [15] = assay type: in vitro ADME; settings: Rat
Microsomal stability [16] = assay type: in vitro ADME; settings: Dog
Single dose MTD = assay type: in vivo; settings: 10, 25, 50 and 100 mg/kg
PK study in Mouse = assay type: in vivo
Plasma protein binding [17] = assay type: in vitro ADME; settings: human
Plasma protein binding [18] = assay type: in vitro ADME; settings: mouse
Plasma protein binding [19] = assay type: in vitro ADME; settings: rat
Plasma protein binding [20] = assay type: in vitro ADME; settings: dog
Plasma stability [21] = assay type: in vitro ADME; settings: Human
Plasma stability [22] = assay type: in vitro ADME; settings: Mouse
Plasma stability [23] = assay type: in vitro ADME; settings: Rat
Plasma stability [24] = assay type: in vitro ADME; settings: Dog
[25] = Solubility: pION, kinetic, thermodynamic; assay type: physicochemical
[26] = Metabolite identification; assay type: in vitro ADME
Caco2 = test: Caco2-permeability & efflux transporter substrate activity; assay type: in vitro ADME
GR = target: T1, GR (Homo sapiens, UniProt P04150); test: Off-target binding study (CEREP screen); settings: no binding up to, read-out: IC 50 of binding, GR
T1 construct: CEREP (contract screen, per earlier reading)

hERG = target: T2, hERG (Homo sapiens, UniProt Q12809); test: Off-target binding study (CEREP screen); settings: no binding up to, read-out: IC 50 of binding, hERG
T2 construct: CEREP (contract screen, per earlier reading)

LIF = LIF (Homo sapiens, UniProt P15018); test: biochemical
[27] = test system: ID-8 ovarian syngeneic tumor; test: ID-8 ovarian syngeneic murine tumor model
Description: CD3+T cells: T cell co-receptor helps to activate both the cytotoxic T cell (CD8+ naive T cells) and also T helper cells (CD4+ naive T cells). • 2. Tumor infiltrating leukocytes • 3. CD19 is widely expressed during all phases of B cell development until terminal differentiation into plasma cells. • 4. […] M1 macrophages: produced along with inflammatory reaction. […] CD8-positive T cells: are a critical subpopulation of MEW class I-restricted T cell and are mediators of adaptive immunity.

Sequence of LIF (P15018 23-202): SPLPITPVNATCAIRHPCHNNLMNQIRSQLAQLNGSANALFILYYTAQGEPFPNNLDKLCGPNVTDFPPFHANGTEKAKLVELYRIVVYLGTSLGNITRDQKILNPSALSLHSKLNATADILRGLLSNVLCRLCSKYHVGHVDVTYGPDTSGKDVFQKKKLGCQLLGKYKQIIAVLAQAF
T1 sequence (P04150 whole entry): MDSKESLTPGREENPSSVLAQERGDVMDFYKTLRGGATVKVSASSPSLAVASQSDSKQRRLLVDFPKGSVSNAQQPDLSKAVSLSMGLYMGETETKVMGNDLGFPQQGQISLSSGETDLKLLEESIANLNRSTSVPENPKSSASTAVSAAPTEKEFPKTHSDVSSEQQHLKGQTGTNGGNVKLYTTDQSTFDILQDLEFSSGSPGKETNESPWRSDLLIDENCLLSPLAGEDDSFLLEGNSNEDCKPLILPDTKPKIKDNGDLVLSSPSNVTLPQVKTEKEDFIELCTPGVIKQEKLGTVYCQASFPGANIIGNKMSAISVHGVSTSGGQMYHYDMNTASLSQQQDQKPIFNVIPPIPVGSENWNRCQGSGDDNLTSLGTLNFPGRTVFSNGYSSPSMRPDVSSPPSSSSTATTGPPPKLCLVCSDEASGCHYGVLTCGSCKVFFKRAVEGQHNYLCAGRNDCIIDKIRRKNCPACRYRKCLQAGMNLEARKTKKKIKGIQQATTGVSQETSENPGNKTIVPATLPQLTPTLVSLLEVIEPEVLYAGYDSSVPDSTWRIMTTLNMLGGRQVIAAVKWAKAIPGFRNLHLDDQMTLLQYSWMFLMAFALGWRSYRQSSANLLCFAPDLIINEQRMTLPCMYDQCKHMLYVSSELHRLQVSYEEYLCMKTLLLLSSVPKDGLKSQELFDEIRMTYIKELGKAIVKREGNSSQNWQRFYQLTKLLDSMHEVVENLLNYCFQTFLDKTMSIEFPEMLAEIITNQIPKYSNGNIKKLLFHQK
T2 sequence (Q12809 whole entry): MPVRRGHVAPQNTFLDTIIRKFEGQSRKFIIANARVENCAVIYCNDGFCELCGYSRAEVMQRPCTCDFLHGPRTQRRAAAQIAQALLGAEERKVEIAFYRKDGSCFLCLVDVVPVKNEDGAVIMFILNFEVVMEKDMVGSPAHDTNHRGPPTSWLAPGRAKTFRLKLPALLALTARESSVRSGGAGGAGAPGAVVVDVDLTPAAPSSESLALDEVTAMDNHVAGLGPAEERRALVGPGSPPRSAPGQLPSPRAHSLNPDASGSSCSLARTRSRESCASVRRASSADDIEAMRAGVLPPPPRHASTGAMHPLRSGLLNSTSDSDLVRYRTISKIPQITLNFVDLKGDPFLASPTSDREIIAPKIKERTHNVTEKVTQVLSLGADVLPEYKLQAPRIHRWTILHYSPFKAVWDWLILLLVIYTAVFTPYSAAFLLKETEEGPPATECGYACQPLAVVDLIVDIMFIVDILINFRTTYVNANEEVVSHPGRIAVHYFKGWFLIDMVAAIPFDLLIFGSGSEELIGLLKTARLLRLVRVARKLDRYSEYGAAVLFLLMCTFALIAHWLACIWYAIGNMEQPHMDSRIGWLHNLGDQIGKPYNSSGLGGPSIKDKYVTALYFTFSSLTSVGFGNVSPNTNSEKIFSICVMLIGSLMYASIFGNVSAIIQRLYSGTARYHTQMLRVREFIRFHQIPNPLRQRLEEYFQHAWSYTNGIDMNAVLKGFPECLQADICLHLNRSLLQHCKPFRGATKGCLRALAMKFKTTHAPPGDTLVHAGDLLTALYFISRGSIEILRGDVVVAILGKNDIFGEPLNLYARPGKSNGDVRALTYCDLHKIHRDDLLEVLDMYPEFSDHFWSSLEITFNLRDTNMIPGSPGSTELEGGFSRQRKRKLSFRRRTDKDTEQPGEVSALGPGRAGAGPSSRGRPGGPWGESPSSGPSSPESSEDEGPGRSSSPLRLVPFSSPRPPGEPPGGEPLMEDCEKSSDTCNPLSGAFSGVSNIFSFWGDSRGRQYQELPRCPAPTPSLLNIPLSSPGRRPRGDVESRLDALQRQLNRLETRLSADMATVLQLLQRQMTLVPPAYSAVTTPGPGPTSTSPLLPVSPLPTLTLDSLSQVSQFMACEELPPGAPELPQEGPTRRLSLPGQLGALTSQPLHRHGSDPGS
Sequence of hERG membrane (Q12809 whole entry): as above

SMILES: C#CC(F)(F)[C@]1(O)CC[C@H]2[C@@H]3CCC4=CC(=O)CCC4=C3[C@@H](c3ccc(-c4c(C)cc(C)cc4C)cc3)C[C@@]21C [EC359, 17α-(1,1-difluoro-2-propyn-1-yl)-17β-hydroxy-11β-[4-p-(2,4,6-trimethylphenyl)phenyl]estra-4,9-dien-3-one]
- cytotoxicity (IC50's) in cytotoxicity assays [1]: low nano-molar range
- IC50 (Mug-Chor cells): 85 nM
- IC50 (U-CH1): 140 nM
- liver damage (HFD induced steatohepatisis) ([2]; after 4 months of HFD, rats): significantly reduced
- fibrosis, Picrosirius red staining of liver tissue ([2]; intermediary and higher dose): Fibrosis was evident
- efficacy in rat models of liver fibrosis ([2]; rat models of liver fibrosis): showed efficacy
- fibrosis, Picrosirius red staining of liver tissue ([2]; rats): minimal fibrosis
- formation of colonies in soft agar (cancer cells): blocked formation of colonies
- TNBC stem cells [3]: inhibited
- cytoskeletal disruption, targeting CAFs [4]: inhibition of alpha-SMA but not beta-tubulin
- tumor burden (TNBC xenograft): dose dependently reduced tumor burden
- tumor burden (MM51): dose dependently reduced tumor burden
- expression of markers of activated stroma (western blot) [5]: reduced the expression of markers of activated stroma including alpha-SMA, and vimentin
- relative reduction in GFP fluorescence ([5]; as compared to control): 46%
- combination with HDAC inhibitor [6]: works synergistically
- Mutagenicity testing [7]: No mutagenicity
- Cardiotoxicity assessment (hERG) (hERG membrane): No liability
- CYP inhibition [8]: 2D6 inhibition
- Hepatocyte stability (Hepatocyte stability [9]): Human & Mouse-moderate
- Hepatocyte stability (Hepatocyte stability [10]): Human & Mouse-moderate
- Hepatocyte stability (Hepatocyte stability [11]): Rat & Dog-low
- Hepatocyte stability (Hepatocyte stability [12]): Rat & Dog-low
- Microsomal stability (Microsomal stability [13]): Human & Mouse-moderate
- Microsomal stability (Microsomal stability [14]): Human & Mouse-moderate
- Microsomal stability (Microsomal stability [15]): Rat & Dog-low
- Microsomal stability (Microsomal stability [16]): Rat & Dog-low
- Single dose MTD (Single dose MTD): No toxicity observed
- oral bioavailability (PK study in Mouse; Mouse): Orally bioavailable
- Mouse PK (p.o) (PK study in Mouse; p.o): 1.0 h
- fraction unbound (Plasma protein binding [17]): 0.0002
- fraction unbound (Plasma protein binding [18]): 0.0037
- fraction unbound (Plasma protein binding [19]): 0.0011
- fraction unbound (Plasma protein binding [20]): 0.0017
- Plasma stability (% remaining at 60 min) (Plasma stability [21]): 113.92%
- Plasma stability (% remaining at 60 min) (Plasma stability [22]): 104.91%
- Plasma stability (% remaining at 60 min) (Plasma stability [23]): 108.64%
- Plasma stability (% remaining at 60 min) (Plasma stability [24]): 105.61%
- solubility [25]: < 10 µg/mL
- Major metabolic pathway [26]: Major metabolic pathway-Phase I
- glucuronide metabolites ([26]; low CL in UDPGA): metabolism; No glucuronide
- Caco2-permeability (Caco2): Low permeable
- efflux transporter substrate activity (Caco2): No efflux transporter
- IC50 (GR): > 10000 nM
- IC50 (hERG): > 30000 nM
- Kd (LIF): > 5000 nM
- Rat PK (iv) (PK study in Rat; iv): 6 h
- oral bioavailability (PK study in Rat; rat): high oral bioavailability; also recorded: Orally bioavailable
- half-life (PK study in Rat; rats): long half-life
- tumor specific infiltration of lymphocytes and macrophages ([27]; ID-8 Ovarian cancer model): enhanced
- M1 macrophages ([27]; ID-8 model): increased
- tumor specific accumulation of CD3+T, CD4+T and CD8+T cells ([27]; ID-8 model): increased
- tumor burden ([27]; ID-8 ovarian syngeneic murine tumor model): significantly reduced
- combination with PD-L1 treatment ([27]; ovarian cancer ID-8 syngeneic mice model): synergizes PD-L1 treatment
